Results: PMC8234864, “Early Effects of the Soluble Amyloid β25-35 Peptide in Rat Cortical Neurons: Modulation of Signal Transduction Mediated by Adenosine and Group I Metabotropic Glutamate Receptors” (International Journal of Molecular Sciences, 2021)
Where no end group is shown, it is not given here.

Key:
A2AR = target: T1, A2AR (Rattus norvegicus, UniProt P30543); test: [3H]ZM241385 radioligand binding in intact cortical neurons; conditions: for A2AR Bmax: [3H]ZM241385 saturation binding
T1 construct: endogenous in cells; host or cells: rat primary cortical neurons (intact)
T1 sequence (P30543 whole entry): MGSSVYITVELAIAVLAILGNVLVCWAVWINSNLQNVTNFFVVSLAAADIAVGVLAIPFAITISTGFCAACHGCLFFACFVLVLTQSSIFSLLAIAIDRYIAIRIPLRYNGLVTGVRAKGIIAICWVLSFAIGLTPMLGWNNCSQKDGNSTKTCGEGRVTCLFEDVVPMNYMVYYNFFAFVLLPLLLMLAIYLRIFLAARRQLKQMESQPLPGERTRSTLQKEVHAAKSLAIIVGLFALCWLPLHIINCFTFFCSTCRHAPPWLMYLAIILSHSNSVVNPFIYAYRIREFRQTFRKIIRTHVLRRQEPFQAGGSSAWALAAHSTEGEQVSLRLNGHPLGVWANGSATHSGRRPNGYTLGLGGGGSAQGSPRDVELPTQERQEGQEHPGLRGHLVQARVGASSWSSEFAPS
Description: Concerning adenosine receptor assessment by radioligand binding, [^3H]DPCPX and [^3H]ZM241385 were employed as selective A1R and A2AR radioligands, as described previously, to determine A1R and A2AR density, respectively. Briefly, primary cortical neurons growth in 24-well plates were washed with serum-free DMEM and pre-incubated with 2 U/mL ADA at 37 °C for 30 min to remove endogenous adenosine. After incubation, the radioligands [^3H]DPCPX (1–20 nM) or [^3H] ZM241385 (1–20 nM) were added in the absence or the presence of CPA in a concentration 10^4 times higher than the radioligand, to obtain non-specific binding to A1R, or 5 mM theophylline, to obtain non-specific binding to A2AR. A specific adenosine uptake inhibitor (1 µM dipyridamole) was added to the reaction mixture to block adenosine receptor ligands’ binding to adenosine transporters. After incubation at 25 °C for 2 h in a final volume of 250 µL, cells were washed with 500 µL of ice-cold buffer and disrupted with 0.2% SDS. Well contents were then transferred to vials and a scintillation liquid mixture was added to measure radioactivity. Two wells from each plate were reserved for protein concentration measurement.

[1] = tested on: mGluR1 (GRM1) gene expression; test: mGluR1 gene expression by real-time PCR; type: cell-based, rat; conditions: 25 µM, 24 or 48 h, vs control neurons
Description: Total RNA was extracted using an ABI 6100 Nucleic Acid PrepStation according to the manufacturer’s protocol (Applied Biosystems Inc., Foster City, CA, USA). Total RNA from cells was isolated and stored at −80 °C. The quality of isolated RNA was estimated by the ratio A260/A280 and was in the range of 1.9–2.1. RNA integrity was evaluated by agarose gel electrophoresis according to MIQE guidelines using the “bleach gel” method. RNA concentrations were determined from the A260. One microgram of total RNA was reverse transcribed using Applied Biosystems High-Capacity cDNA Archive Kit.
To assess relative gene expression in neurons, quantitative real-time RT-PCR analysis was performed with an Applied Biosystems Prism 7500 Fast Sequence Detection System using TaqMan® universal PCR master mix according to the manufacturer’s specifications. […] Levels of RNA expression were determined using the 7500 Fast System SDS software version 1.3.1 (Applied Biosystems) according to the 2^−ΔΔCt method. […] The results from three independent repeat assays, performed in different plates each using different cDNA’s from the cultures analyzed, were averaged to produce a single mean quantity value for each mRNA.

PLCβ1 = PLCβ1 immunocytochemistry in permeabilized neurons; type: cell-based, rat; conditions: 25 µM, 24 h
Description: For PLCβ1 immunostaining, the protocol described above was followed with the introduction of modified steps. Before the nonspecific staining blockade with 3% normal goat serum, cells were pre-treated with Triton 0.25% in LB for 10 min to induce membrane permeabilization. Cells were incubated overnight in blocking buffer with mouse anti-PLCβ1 monoclonal antibody (1:500) from Millipore (Bedford, MA, USA). The following day, after three LB washes (10 min each), cortical neurons were exposed to Cy3-conjugated goat anti-mouse IgG (1:600). In all immunochemical procedures, internal controls were carried out where primary antibodies were not added to the blocking buffer.
To evaluate the degree of fluorescence intensity in cortical neurons, fluorescence was measured to estimate the protein expression in the different experimental conditions analyzed. Images (448.6 µm × 335.08 µm) obtained with a digital camera (Leica DFC350FX R2), attached to a Leica DMI6000B (Leica Microsystems, Wetzlar, Germany) fluorescent microscope, were used for quantification (20x HCX PL FLUOTAR 0.4 dry objective). […] Fluorescence intensity was estimated by averaging mean grey values. […] Data were normalized to the total number of cells in the analyzed fields. The mean fluorescence background, calculated in the unstained regions between neurons, was subtracted from the fluorescence intensity of each data point. […]

[2] = neurons exposed to 25 µM for 24 h
[3] = neurons exposed to 25 µM for 48 h

GSNKGAIIGLM [Aβ25-35]
A2AR affinity (1/KD), change vs control (A2AR; 25 µM, 24 or 48 h): no significant variation
Total A2AR density (Bmax), change vs control (A2AR; 25 µM, 24 h): not altered
Total A2AR density (Bmax) increase over control value (A2AR; 25 µM, 48 h): 80%
Kd (A2AR; [2]): 0.0103 ± 0.00122 µM
A2AR Bmax (A2AR; [2]): 557 ± 56 fmol/mg prot
Kd (A2AR; [3]): 0.014 ± 0.00469 µM
A2AR Bmax (A2AR; [3]): 1178 ± 43 fmol/mg prot
mGluR1 gene expression [1]: increase
total PLCβ1 protein decrease over control value (PLCβ1): 40%
